In patent publication US8288421B2, “Phenylaminopyridines” (Basilea Pharmaceutica AG, priority 2004, dated 2012):

Assays:
DOHH2 = test: Mitochondrial membrane potential (JC-1); assay type: cell-based; settings: DOHH2, 48 h read-out
Procedure: (§1) This assay is performed in 96 well tissue culture plates. Appropriate number of cells (adherent cells: 3-5*10^3, suspension cells: 8-10*10^3) are being seeded out in 80 μl complete medium. Adherent cells are incubated for 24 h for proper spreading out before addition of test compounds while suspension cells are immediately treated with test compounds after seeding out. The test compounds are added in 20 μal complete medium containing max 5% DMSO. […] The assay plates are then further incubated for 30 minutes and subsequently analyzed with a standard inverted fluorescence microscope by using the FITC and TRITC filters.
(§2) The scores A, B, C and D are explained at the end of the Table.

Jily [1] = test: MTS proliferation assay; assay type: cell-based; settings: 72 h read-out
Procedure: (§3) The assay is performed in 96 well tissue culture plates. The cells (range: 1.5*10^3-10^4) are seeded out in 80 μl complete medium 24 h prior to compound treatment. The test compounds are added in 20 μl complete medium containing max 5% DMSO. The final compound concentrations in the assays are in the range of 0.001 μM-10 μM. The assay plates are incubated for 72 h at culture conditions. The MTS reagent is prepared according to the manufacturer's protocol (Promega G1111). 20 μl MTS reagent are added to each well, the assay plates are quickly spun and incubated for another 3 h at culture conditions. Subsequently, the plates are shortly shaked and absorption measured with a microplate-reader at 492 nm. The scores A, B, C and D are explained at the end of the Table.

MRC5 [2] = test: MTS proliferation assay; assay type: cell-based; settings: MRC5, 72 h read-out
Procedure: as §3

HeLa [3] = test: MTS proliferation assay; assay type: cell-based, human; settings: 72 h read-out
Procedure: as §3

Jurkat [4] = test: MTS proliferation assay; assay type: cell-based, human; settings: 72 h read-out
Procedure: as §3

HT1080 = test: MTS proliferation assay; assay type: cell-based, human; settings: HT1080, 72 h read-out
Procedure: as §3

Jily [5] = test: Hoechst 33342 nuclear staining; assay type: cell-based; settings: 48 h read-out
Procedure: as §1, with “μl” for “μal”, “DMSO. The final compound concentrations in the assays are in the range of 0.001 μM-10 μM.” for “DMSO.”, “microscope.” for “microscope by using the FITC and TRITC filters.”
(§4) The readout allows the determination of the fraction of apoptotic nuclei as well as other morphological criteria specific for apoptosis as a function of the treatment. The scores A, B, C and D are explained at the end of the Table.

MRC5 [6] = test: Hoechst 33342 nuclear staining; assay type: cell-based; settings: MRC5, 48 h read-out
Procedure: as §1, with “μl” for “μal”, “DMSO. The final compound concentrations in the assays are in the range of 0.001 μM-10 μM.” for “DMSO.”, “microscope.” for “microscope by using the FITC and TRITC filters.”
as §4

HeLa [7] = test: Hoechst 33342 nuclear staining; assay type: cell-based, human; settings: 48 h read-out
Procedure: as §1, with “μl” for “μal”, “DMSO. The final compound concentrations in the assays are in the range of 0.001 μM-10 μM.” for “DMSO.”, “microscope.” for “microscope by using the FITC and TRITC filters.”
as §4

Jurkat [8] = test: Hoechst 33342 nuclear staining; assay type: cell-based, human; settings: 48 h read-out
Procedure: as §1, with “μl” for “μal”, “DMSO. The final compound concentrations in the assays are in the range of 0.001 μM-10 μM.” for “DMSO.”, “microscope.” for “microscope by using the FITC and TRITC filters.”
as §4

PBL [9] = test: Hoechst 33342 nuclear staining; assay type: cell-based, human; settings: 48 h read-out
Procedure: as §1, with “μl” for “μal”, “DMSO. The final compound concentrations in the assays are in the range of 0.001 μM-10 μM.” for “DMSO.”, “microscope.” for “microscope by using the FITC and TRITC filters.”
as §4

HeLa [10] = test: Mitochondrial membrane potential (JC-1); assay type: cell-based, human; settings: 48 h read-out
Procedure: as §1, §2

Jurkat [11] = test: Mitochondrial membrane potential (JC-1); assay type: cell-based, human; settings: 48 h read-out
Procedure: as §1, §2

MCF7 = test: Mitochondrial membrane potential (JC-1); assay type: cell-based, human; settings: MCF7, 48 h read-out
Procedure: as §1, §2

PBL [12] = test: Mitochondrial membrane potential (JC-1); assay type: cell-based, human; settings: 48 h read-out
Procedure: as §1, §2

| SMILES | EC50 (DOHH2) [nM] | IC50 (Jily [1]) [nM] | IC50 (MRC5 [2]) [nM] | IC50 (HeLa [3]) [nM] | IC50 (Jurkat [4]) [nM] | IC50 (HT1080) [nM] | EC50 (Jily [5]) [nM] | EC50 (MRC5 [6]) [nM] | EC50 (HeLa [7]) [nM] | EC50 (Jurkat [8]) [nM] | EC50 (PBL [9]) [nM] | EC50 (HeLa [10]) [nM] | EC50 (Jurkat [11]) [nM] | EC50 (MCF7) [nM] | EC50 (PBL [12]) [nM] |
| --- | --- | --- | --- | --- | --- | --- | --- | --- | --- | --- | --- | --- | --- | --- | --- |
| COc1ccc(Nc2cncc(-c3cccc(NC(=O)Cc4ccccc4)c3)c2)cc1 [Example 15] | 100 to 1000 | 100 to 1000 | 100 to 1000 | 100 to 1000 | 100 to 1000 | 100 to 1000 | 100 to 1000 | > 1000 | 100 to 1000 | 100 to 1000 | > 1000 | 100 to 1000 | 10 to 100 | > 1000 | > 1000 |
| COc1ccc(Nc2cncc(-c3cccc(NC(C)=O)c3)c2)cc1 [Example 8] | 100 to 1000 | 100 to 1000 | > 1000 | 100 to 1000 | 100 to 1000 | 100 to 1000 | 100 to 1000 | 100 to 1000 | 100 to 1000 | 100 to 1000 | > 1000 | 100 to 1000 | 100 to 1000 | > 1000 | > 1000 |
| COc1ccc(Nc2cncc(-c3cccc(NC(=O)c4ccccc4)c3)c2)cc1OC [Example 29] | > 1000 | 100 to 1000 | > 1000 | > 1000 | 100 to 1000 | > 1000 | 100 to 1000 | > 1000 | 100 to 1000 | 100 to 1000 | > 1000 | > 1000 | 100 to 1000 | > 1000 | > 1000 |
| CCC(=O)Nc1cccc(-c2cncc(Nc3ccc(OC)cc3)c2)c1 [Example 21] | 100 to 1000 | 100 to 1000 | 100 to 1000 | 100 to 1000 | 10 to 100 | 100 to 1000 | 100 to 1000 | > 1000 | 100 to 1000 | 100 to 1000 | > 1000 | 100 to 1000 | 100 to 1000 | > 1000 | > 1000 |
| CCOc1ccccc1C(=O)Nc1cccc(-c2cncc(Nc3ccc(OC)cc3)c2)c1 [Example 10] | 100 to 1000 | 10 to 100 | 100 to 1000 | 100 to 1000 | 10 to 100 | 10 to 100 | 100 to 1000 | > 1000 | 10 to 100 | 10 to 100 | > 1000 | 100 to 1000 | 10 to 100 | 100 to 1000 | > 1000 |
| COc1ccc(Nc2cncc(-c3cccc(NC(=O)c4ccc(OC)cc4)c3)c2)cc1 [Example 9] | 10 to 100 | 100 to 1000 | > 1000 | 100 to 1000 | 100 to 1000 | 100 to 1000 |  |  |  |  |  | 100 to 1000 | 10 to 100 | 100 to 1000 | > 1000 |
| COc1ccc(Nc2cncc(-c3cccc(NC(=O)c4cccnc4)c3)c2)cc1 [Example 13] | 100 to 1000 | 10 to 100 | 100 to 1000 | 100 to 1000 | 10 to 100 | 100 to 1000 | 100 to 1000 | > 1000 | 100 to 1000 | 100 to 1000 | > 1000 | 100 to 1000 | 10 to 100 | > 1000 | > 1000 |
| COc1ccc(Nc2cncc(-c3cccc(NC(=O)c4cccs4)c3)c2)cc1 [Example 22] | 10 to 100 | 10 to 100 | 100 to 1000 | 10 to 100 | 10 to 100 | 10 to 100 | 10 to 100 | 100 to 1000 | 10 to 100 | 10 to 100 | > 1000 | 10 to 100 | 10 to 100 | 100 to 1000 | > 1000 |
